This note sets out measurements from PubChem BioAssay (NCI).

Test systems include CAKI-1 renal; MDA-MB-231 breast; RPMI-8226 leukemia; SNB-19 CNS; SNB-75 CNS; T-47D breast; 786-0 renal; MDA-MB-435; M14 melanoma; DLD-1 colon; RXF 393 renal.
Test in all cases: growth of human tumour cells (NCI), 48 h

SMILES strings stand for the structures.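 Five concentrations, 48 hours, 96-well plates. Here, GI50 denotes the concentration required for 50% inhibition of growth. At the TGI there is no net growth.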

For `CCOc1ccc2c(ccc(/C=C\c3cc(C)c4cccnc4c3O)[n+]2C)c1`, the TGI turned out to be 29.3 µM with CAKI-1 renal; 0.632 µM with MDA-MB-231 breast; 13.2 µM in the test on RPMI-8226 leukemia; 30.7 µM with SNB-19 CNS; 15 µM with SNB-75 CNS; 6.2 µM in the test on T-47D breast. In addition, the TGI in the test with 786-0 renal turned out to be 29.3 µM; in the test on MDA-MB-435 it was 13.3 µM; in the test on M14 melanoma, 18.7 µM; with DLD-1 colon, 4.32 µM; in the test on RXF 393 renal it was 18.9 µM.

For `COc1cc2c3c(n(CCN(C)C)c(=O)c2cc1OC)-c1cc2c(cc1C3=O)OCO2`, the GI50 is 0.747 µM with CAKI-1 renal; 0.0315 µM in the test with RPMI-8226 leukemia; more than 20.7 µM with SNB-19 CNS; 8.22 µM in the test on SNB-75 CNS; 27.1 µM in the test with T-47D breast; 6.08 µM with MDA-MB-435. Also, the TGI in the test with CAKI-1 renal was 44.3 µM; in the test with MDA-MB-231 breast, more than 32.1 µM; in the test with RPMI-8226 leukemia, 19.2 µM; in the test with SNB-19 CNS it was more than 100 µM; in the test with SNB-75 CNS, more than 100 µM; in the test with T-47D breast, more than 100 µM. Further, the TGI is more than 100 µM in the test with 786-0 renal, more than 77 µM in the test with MDA-MB-435, more than 100 µM in the test on M14 melanoma and more than 57.9 µM in the test with RXF 393 renal.

As for `O=C(O)c1cc(=O)[nH]c(=S)[nH]1`, the TGI with CAKI-1 renal, with MDA-MB-231 breast, in the test with RPMI-8226 leukemia, in the test on SNB-19 CNS, in the test with SNB-75 CNS and with T-47D breast was more than 100 µM throughout. Further, the TGI in the test with 786-0 renal, with MDA-MB-435, with M14 melanoma and in the test with RXF 393 renal was more than 100 µM in each case.

As for `CCCCN(CCCC)CCCCNc1c(C)cnc2cc(Cl)ccc12`, the TGI in the test with SNB-19 CNS is more than 100 µM; in the test on 786-0 renal, 32.1 µM; in the test on M14 melanoma, 4.05 µM; with RXF 393 renal it was 31 µM.

With `Cc1ccc(S(=O)(=O)Oc2cc(S(=O)(=O)O)cc3cc(S(=O)(=O)O)cc(N)c23)cc1`, the TGI in the test on CAKI-1 renal, in the test with MDA-MB-231 breast, with RPMI-8226 leukemia, in the test with SNB-19 CNS, in the test with SNB-75 CNS and in the test with T-47D breast was more than 100 µM in each case. Further, the TGI in the test with 786-0 renal, with MDA-MB-435, in the test with M14 melanoma and in the test on RXF 393 renal was more than 100 µM each time.

For the molecule `c1ccc2c(c1)nc1n2CSC1`, the TGI with CAKI-1 renal, in the test with RPMI-8226 leukemia, in the test with SNB-19 CNS, in the test with SNB-75 CNS, in the test with M14 melanoma and in the test with DLD-1 colon was more than 100 µM throughout.

For `O=C(Nc1ccc(Cl)cc1)/C(Cc1cccc[n+]1[O-])=N\Nc1ccc([N+](=O)[O-])cc1[N+](=O)[O-]`, the TGI with CAKI-1 renal, with RPMI-8226 leukemia, in the test with SNB-19 CNS, in the test with SNB-75 CNS, in the test on 786-0 renal and in the test with M14 melanoma was more than 100 µM in each case. Also, the TGI in the test on DLD-1 colon and in the test with RXF 393 renal was more than 100 µM each time.

On to `[C-]#[O+].[Cl][Sn]([Cl])[Cl].[Cl][Sn]([Cl])[Cl].[Pt].c1ccncc1`, for which the TGI with CAKI-1 renal, in the test with RPMI-8226 leukemia, in the test with SNB-19 CNS, in the test with SNB-75 CNS, in the test on DLD-1 colon and in the test with RXF 393 renal was more than 100 µM each time.

Consider `CCN(CC)CCCC(Nc1c2ccc(Cl)cc2nc2ccc(OC)cc12)c1ccc(F)cc1` (stereo not given), for which the GI50 in the test on CAKI-1 renal is 1.73 µM; in the test with MDA-MB-231 breast it was 1.47 µM; in the test with RPMI-8226 leukemia, 2.18 µM; with SNB-75 CNS it was 1.21 µM; in the test with T-47D breast, 2.15 µM; with MDA-MB-435 it was 1.73 µM. Besides, the GI50 was 1.88 µM with M14 melanoma and 1.51 µM in the test on RXF 393 renal. Also, the TGI in the test on CAKI-1 renal came to 3.79 µM; in the test on MDA-MB-231 breast it was 3.08 µM; with RPMI-8226 leukemia, 5.36 µM; in the test on SNB-75 CNS, 2.66 µM; in the test with T-47D breast, 5.66 µM; in the test with MDA-MB-435 it was 3.2 µM. For the same molecule, the TGI in the test on M14 melanoma was 3.58 µM; with RXF 393 renal it was 3.13 µM.

As to `CN1C2C=C(c3ccccc3)CC1CC2` (stereo not given), the TGI in the test with RPMI-8226 leukemia, in the test on SNB-19 CNS, with SNB-75 CNS, in the test with 786-0 renal, with M14 melanoma and with DLD-1 colon was more than 100 µM throughout. In the test with RXF 393 renal, the TGI was more than 100 µM.

For the molecule `O=C1CN2C(Cl)(Cl)C2(c2ccccc2)c2cc(Cl)ccc2N1CC(F)(F)F` (stereo not given), the TGI with CAKI-1 renal is more than 100 µM; in the test on RPMI-8226 leukemia it was 78.5 µM; in the test on SNB-75 CNS, 51.2 µM; in the test with M14 melanoma, 77.5 µM; with DLD-1 colon, 42.9 µM; in the test with RXF 393 renal, 63.6 µM.

As for `CC1=C[C@]2(CC(C)C3C(CC4(C)C5CCC6C(C)(C)C(=O)CC[C@@]67C[C@@]57CC[C@]34C)O2)OC1=O` (stereo not given in full), the TGI with CAKI-1 renal was 62.2 µM; in the test on RPMI-8226 leukemia it was more than 100 µM; with SNB-19 CNS it was 83.7 µM; in the test with SNB-75 CNS, 42.1 µM; in the test with M14 melanoma, more than 100 µM; in the test with DLD-1 colon, more than 100 µM. Besides, the TGI in the test with RXF 393 renal stood at 21.8 µM.

Regarding `CCOP(=O)(OCC)C(Cc1ccc(OC)c(OC)c1)N=C(c1ccccc1)c1ccccc1` (stereo not given), the TGI in the test with CAKI-1 renal was more than 100 µM; in the test with MDA-MB-231 breast it was more than 100 µM; in the test on RPMI-8226 leukemia it was 44.3 µM; in the test on SNB-19 CNS, more than 100 µM; in the test with SNB-75 CNS, 81.1 µM; in the test on T-47D breast, 56.8 µM. The TGI in the test on MDA-MB-435, in the test with M14 melanoma and in the test on RXF 393 renal was more than 100 µM throughout.

As to `CC(/C=C/c1ccc([N+](=O)[O-])o1)=N/N1CC(CN2CCOCC2)OC1=O` (stereo not given), the TGI with CAKI-1 renal is 40.7 µM; in the test with MDA-MB-231 breast it was more than 100 µM; in the test on RPMI-8226 leukemia it was 41.9 µM; with SNB-19 CNS it was more than 100 µM; in the test on T-47D breast it was 41.2 µM; with 786-0 renal, more than 100 µM. Also, the TGI in the test with MDA-MB-435 is 42.2 µM; in the test on M14 melanoma it was 40.3 µM.

On to `COc1ccc(/C=N/NC(=O)NCCCN(C)C)cc1`, for which the TGI with SNB-19 CNS, in the test with DLD-1 colon and in the test on RXF 393 renal was more than 100 µM in each case.

Regarding `CCOc1ccc(/C=C/[N+](=O)[O-])cc1`, the GI50 in the test on CAKI-1 renal is 37 µM; with MDA-MB-231 breast, 7.91 µM; in the test on RPMI-8226 leukemia, 2.14 µM; in the test on SNB-19 CNS it was 8.95 µM; in the test on SNB-75 CNS, 13 µM; in the test on T-47D breast, 17.6 µM. Besides, the GI50 with MDA-MB-435 was 3.18 µM; in the test with M14 melanoma, 2.06 µM; in the test on RXF 393 renal it was 1.79 µM. Moreover, the TGI with CAKI-1 renal was more than 100 µM; in the test on MDA-MB-231 breast, 20.9 µM; in the test with RPMI-8226 leukemia it was 6.17 µM; in the test with SNB-19 CNS, 22 µM; in the test on SNB-75 CNS, 30.9 µM; in the test with T-47D breast, 42.8 µM. For the same molecule, the TGI with MDA-MB-435 was 13.7 µM; in the test on M14 melanoma it was 4.24 µM; in the test with RXF 393 renal it was 3.56 µM.

`Cc1nc2ccccc2c(=O)n1CC(=O)O`: the TGI in the test with CAKI-1 renal, in the test with RPMI-8226 leukemia, in the test with SNB-19 CNS, in the test with SNB-75 CNS, in the test on DLD-1 colon and in the test with RXF 393 renal was more than 100 µM each time.

Take `Cn1cc(C[C@@H](N)C(=O)O)c2ccccc21`: the TGI with CAKI-1 renal, in the test with MDA-MB-231 breast, in the test on RPMI-8226 leukemia, with SNB-19 CNS, in the test with SNB-75 CNS and with T-47D breast was more than 100 µM in each case. The TGI in the test with 786-0 renal, with MDA-MB-435, in the test with M14 melanoma and in the test on RXF 393 renal was more than 100 µM throughout.

Regarding `Cc1cccc2c(N)c3cccc(C(=O)NCCN(C)C)c3nc12`, the TGI in the test on CAKI-1 renal worked out at 1.08 µM; in the test with MDA-MB-231 breast it was 0.275 µM; in the test with RPMI-8226 leukemia it was 0.128 µM; in the test on SNB-75 CNS it was 0.615 µM; in the test with T-47D breast, 0.513 µM; in the test on MDA-MB-435, 0.321 µM. The TGI in the test with M14 melanoma turned out to be 0.422 µM; in the test with RXF 393 renal, 0.479 µM.

For `Nc1ncnc2c1ncn2C1CCC(CO)O1` (stereo not given), the TGI with CAKI-1 renal, in the test on RPMI-8226 leukemia, in the test with SNB-19 CNS, in the test with SNB-75 CNS, with DLD-1 colon and with RXF 393 renal was more than 100 µM each time.

In the case of `CC(C)=CCc1c(C)cc2cc3c(c(O)c2c1O)C(O)=CC(=O)C3(CC=C(C)C)C/C=C(\C)CO` (stereo not given), the TGI is 91.3 µM in the test with CAKI-1 renal; 67.6 µM in the test with RPMI-8226 leukemia; 86.2 µM in the test on SNB-19 CNS; 92.8 µM with SNB-75 CNS; 70.9 µM in the test on DLD-1 colon; 63.4 µM with RXF 393 renal.

On to `CC[C@@H](C(=O)[C@@H](C)[C@@H](O)[C@H](C)CCc1ccc(C)c(O)c1C(=O)O)[C@H]1O[C@](CC)([C@H]2CC[C@](O)(CC)[C@H](C)O2)C[C@@H]1C`, for which the TGI in the test with CAKI-1 renal was found to be 11.7 µM; with RPMI-8226 leukemia it was 5.28 µM; with SNB-19 CNS it was 5.95 µM; in the test on SNB-75 CNS it was 7.07 µM; with 786-0 renal it was 13.5 µM; in the test with M14 melanoma, 13.8 µM. The molecule also yielded a TGI in the test on DLD-1 colon of 13.8 µM.

`O=C(Nc1nc2ccc([N+](=O)[O-])cc2[n+]([O-])n1)C(F)(F)F`: the TGI in the test with CAKI-1 renal is more than 100 µM; in the test on MDA-MB-231 breast, more than 100 µM; with RPMI-8226 leukemia, 41.4 µM; in the test with SNB-19 CNS, more than 100 µM; in the test on SNB-75 CNS, more than 100 µM; in the test with T-47D breast, more than 100 µM. For the same molecule, the TGI was more than 100 µM with 786-0 renal, 32 µM in the test with MDA-MB-435, more than 100 µM in the test with M14 melanoma and more than 100 µM with RXF 393 renal.

In the case of `CO/N=C1/c2sccc2[C@H](NC(=O)C(F)(F)F)[C@@H]1O`, the TGI in the test on CAKI-1 renal, in the test on MDA-MB-231 breast, in the test on SNB-75 CNS, in the test with T-47D breast, in the test on MDA-MB-435 and with M14 melanoma was more than 100 µM in each case. The same molecule came in with a TGI with RXF 393 renal of more than 100 µM.

In the case of `C[C@]12C=CC(=O)C=C1CC[C@@H]1[C@@H]2C(=O)C[C@@]2(C)[C@H]1CC[C@]2(O)C(=O)CO`, the TGI in the test with CAKI-1 renal, in the test with MDA-MB-231 breast, in the test with RPMI-8226 leukemia, in the test on SNB-19 CNS, with SNB-75 CNS and in the test with T-47D breast was more than 100 µM throughout. Besides, the TGI in the test with 786-0 renal, in the test with MDA-MB-435, in the test on M14 melanoma and with RXF 393 renal was more than 100 µM in each case.
